ChEMBL document CHEMBL1155765, “Haterumaimides F-I, four new cytotoxic diterpene alkaloids from an ascidian Lissoclinum species” (J Nat Prod, 2001)

Assays:
P388 = assay: Cytotoxicity against mouse P388 cells; format: functional, cell-based
[1] = Toxicity against Sea urchin fertilized eggs assessed as inhibition of cell division at 5 ppm; set-up: species or system Egg; settings: echinoidea

CC1(C)C[C@H](Cl)C[C@]2(C)[C@H]3C[C@@H]([C@H]4CC(=O)NC4=O)O[C@@]3(C)CC(=O)[C@@H]12 [HATERUMAIMIDE I]
IC50 (P388): > 10 µg/mL | inhibition at 5 ppm [1]: 80%
